# Literature values, collected in US10646464B2, “Methods for treating cancer” (Boston Biomedical, Inc., priority 2017, dated 2020).
# What was measured:
# [1] = test system: Stat3 pathway; conditions: read-out: inhibits Stat3 pathway activity, cellular IC50
# [2] = test system: patients with advanced, previously treated pancreatic adenocarcinoma; conditions: weekly paclitaxel alone, previously reported
IC50 [1],SMILES,median overall survival (mOS) [2]
~250 nM,"CC(=O)c1cc2c(o1)C(=O)c1ccccc1C2=O [2-acetylnaphtho[2,3-b]furan-4,9-dione]",
,CC(=O)O[C@H]1C(=O)[C@@]2(C)[C@H]([C@H](OC(=O)c3ccccc3)[C@]3(O)C[C@H](OC(=O)[C@H](O)[C@@H](NC(=O)c4ccccc4)c4ccccc4)C(C)=C1C3(C)C)[C@]1(OC(C)=O)CO[C@@H]1C[C@@H]2O [paclitaxel],about 17.5 weeks
